Reference: article PMC2362735, “New semisynthetic vinca alkaloids: chemical, biochemical and cellular studies” (British Journal of Cancer, 1999)

What was measured:
[1] = tested on: Mouse leukaemia P388 cells; test: In vivo anti-tumour effect on P388 mouse leukaemia, single i.p. dose; settings: P388 mice, single dose i.p.
Text: The numerous antimitotic drugs already developed and therapeu- tically used for a large number of pathologies belong to different classes based on their chemical structure and other distinctive features. Antimitotic drugs usually target the tubulin/microtubule network of the cytoskeleton that is formed by assembly of cyto- plasmic tubulin dimers. The stability of the different microtubular structures varies considerably; some of their functions depend on their lability. The lability is augmented by the extreme sensitivity to various drugs. Several synthetic and natural compounds interact specifically with tubulin and/or microtubule, fundamentally destroying its dynamic character and leading to cell death. […] Because of their extensive clinical use, it is important to synthesize additional agents having at least the same biological activity. […] Nevertheless, it is unclear yet how the anti-calmodulin activity of these drugs is related to their desired and undesired pharmacological effects. […] The synthesis of the KAR derivatives are presented. […] Taxol, GTP and trifluoperazine were purchased from Sigma. All organic reagents for synthesis of the new compounds were obtained from Aldrich and were of the highest grade. All other chemicals were reagent grade commercial preparations. […] Tubulin was stored in 1 M sucrose, 10 mM sodium phosphate buffer, 0.5 mM magnesium chloride and 0.1 mM GTP, pH 7.0, at -80C and dialysed against the appropriate buffer before use. […] PFK, aldolase and glycerol-3-phosphate dehydrogenase- triosephosphate isomerase purified from rabbit skeletal muscle were purchased in ammonium sulphate suspensions from Sigma or Boehringer. The enzyme suspensions were centrifuged at 10 000g for 5 min. The pellets were suspended in the appropriate buffer, then the enzymes were gel filtered or dialysed in the same buffer to remove ammonium sulphate. […] (Figure 1B; R1 , CH3; R2 , CH2 CH2 Cl). […] After 2 h incubation at room temperature, 200 ml dried toluene was added to the reaction mixture. […] The mixture was stirred for 30 min. After separation of the organic phase, it was washed with water (3 x 30 ml) and dried with potassium sulphate and evaporated on a water bath of 35-40C at 20-27 hPa. The resulting material was chromatographed on silica gel (500 g, bead size of 0.040- 0.063 mm) column (30 mm x 500 mm) using ethyl acetate/ethanol (9:1) mixture as eluent. […] The mixture was kept for 4 h at room temperature and then evaporated on a water bath at 40C under a vacuum of 80 hPa to a final volume of 5-6 ml. […] (Figure 1B, R1 , CHO; R2 , CH2 CH2 Cl). […] Synthesis of KAR-4 [3-allyl-2,4-dioxo-3,5-spiro-oxazolidino- 4-deacetoxy-vinblastine] (Figure 1B; R1 , CH3; R2 , CH2 CH=CH2 ). […] NMR measurements were carried out on a Varian Unity plus-500 instrument (500 MHz for 1H and 125 MHz for 13C) in DMSO. Chemical shifts were determined relative to dTMS = 0.00 p.p.m. 1H and 13C signal assignments were verified by a concerted use of two-dimensional 1H-1H and 1H-13C shift correlation methods (DQFCOSY, HSQC, HMBC) and NOESY experiments. The gradient-enhanced DQFCOSY, HSQC, HMBC and NOESY experiments were recorded by using the standard spectrometer software package. A mixing time of tmix = 0.5 s was used for the NOESY experiments.

[2] = tested on: Mouse leukaemia P388 cells; design: method as in Orosz et al (1997a); settings: P388, single doses i.p.; data published also in ref Orosz et al (1997a); cited from earlier work

Q: With CC[C@]1(O)C[C@@H]2CN(CCc3c([nH]c4ccccc34)[C@@](C(=O)OC)(c3cc4c(cc3OC)N(C)[C@@H]3[C@]45CCN4CC=C[C@@](CC)(C[C@@]36OC(=O)N(CCCl)C6=O)[C@H]45)C2)C1 [KAR-2, 3′-(β-chloroethyl)-2′,4′-dioxo-3,5′-spiro-oxazolidino-4-deacetoxy-vinblastine] as the molecule, how does the maximal tolerated dose [1] read?
A: 80 mg/kg

Q: And the “Dose (mg kg-1) giving the maximal effect” value [2]?
A: 60 mg/kg

Q: And the “Maximal effect T/C (%)” value [2]?
A: 207%
